These results are taken from patent US10189857B2, “Positive allosteric modulators of the muscarinic acetylcholine receptor M4” (Vanderbilt University, priority 2016, dated 2019).

pEC50: −log10 of the molar value.

This assay deals with T1, Human M4 (Homo sapiens, UniProt P08173).
T1 construct: expressed in transfected cells; host or cells: CHO-K1 (American Type Culture Collection), stably expressing M4 and Gqi5
T1 sequence (P08173 1-479): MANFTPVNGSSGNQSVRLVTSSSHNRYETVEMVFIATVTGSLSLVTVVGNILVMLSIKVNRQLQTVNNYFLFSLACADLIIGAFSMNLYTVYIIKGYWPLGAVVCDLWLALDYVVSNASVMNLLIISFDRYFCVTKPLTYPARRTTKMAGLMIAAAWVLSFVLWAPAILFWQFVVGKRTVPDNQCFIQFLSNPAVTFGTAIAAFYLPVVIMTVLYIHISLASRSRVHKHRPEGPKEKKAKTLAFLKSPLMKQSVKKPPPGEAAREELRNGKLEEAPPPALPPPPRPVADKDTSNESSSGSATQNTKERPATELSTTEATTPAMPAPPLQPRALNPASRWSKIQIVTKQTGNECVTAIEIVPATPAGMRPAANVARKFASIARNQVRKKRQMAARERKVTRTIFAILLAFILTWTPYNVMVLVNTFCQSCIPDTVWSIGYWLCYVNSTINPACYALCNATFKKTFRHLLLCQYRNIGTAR
Kind of assay: mAChR M4 cell-based functional assay (calcium flux, potentiation of EC20 acetylcholine response). Conditions: M4/Gqi5/CHO-K1 cells; for Emax at 30 µM: % ACh maximum at 30 μM; for pEC50: PAM activity as increase in EC20 acetylcholine response. On the procedure:
Human M4 cDNA, along with the chimeric G protein Gqi5, were transfected into Chinese hamster ovary (CHO-K1) cells purchased from the American Type Culture Collection using Lipofectamine2000. M4/Gqi5/CHO cells were grown in Ham's F-12 medium containing 10% heat-inactivated fetal bovine serum (FBS), 20 mM HEPES, 500 μg/mL G418 sulfate, and 200 μg/mL Hygromycin B.
For high throughput measurement of agonist-evoked increases in intracellular calcium, CHO-K1 cells stably expressing muscarinic receptors were plated in growth medium lacking G418 and hygromycin at 15,000 cells/20 μL/well in Greiner 384-well black-walled, tissue culture (TC)-treated, clear-bottom plates (VWR). Cells were incubated overnight at 37° C. and 5% CO2. The next day, cells were washed using an ELX 405 (BioTek) with assay buffer; the final volume was then aspirated to 20 μL. Next, 20 μL of a 2.3 μM stock of Fluo-4/acetoxymethyl ester (Invitrogen, Carlsbad, Calif.), prepared as a 2.3 mM stock in DMSO and mixed in a 1:1 ratio with 10% (w/v) Pluronic F-127 and diluted in assay buffer, was added to the wells and the cell plates were incubated for 50 min at 37° C. and 5% CO2. Dye was removed by washing with the ELX 405 and the final volume was aspirated to 20 μL. Compound master plates were formatted in an 11 point concentration-response curve (CRC) format (1:3 dilutions) in 100% DMSO with a starting concentration of 10 mM using a BRAVO liquid handler (Agilent). Test compound CRCs were then transferred to daughter plates (240 nL) using the Echo acoustic plate reformatter (Labcyte, Sunnyvale, Calif.) and then diluted into assay buffer (40 μL) to a 2× stock using a Thermo Fisher Combi (Thermo Fisher Scientific, Waltham, Mass.).
Calcium flux was measured using the Functional Drug Screening System (FDSS) 6000 or 7000 (Hamamatsu Corporation, Tokyo, Japan) as an increase in the fluorescent static ratio. Compounds were applied to cells (20 μL, 2×) using the automated system of the FDSS at 2-4 seconds into the protocol and the data were collected at 1 Hz. At approximately 144 s, […] an EC20 concentration of the muscarinic receptor agonist acetylcholine was added (5×), followed by the addition of 12 μL of an EC80 concentration of acetylcholine at approximately the 230 s time point (5×). Agonist activity was analyzed as a concentration-dependent increase in calcium mobilization upon compound addition. Positive allosteric modulator activity was analyzed as a concentration-dependent increase in the EC20 acetylcholine response. Antagonist activity was analyzed as a concentration-dependent decrease in the EC80 acetylcholine response. Concentration-response curves were generated using a four-parameter logistical equation in XLFit curve fitting software (IDBS, Bridgewater, N.J.) for Excel (Microsoft, Redmond, Wash.) or Prism (GraphPad Software, Inc., San Diego, Calif.) or the Domatics software platform (Domatics, Bishop's Stortford, UK).
Compounds were synthesized as described above. Activity (EC50 and Emax) was determined in the mAChR M4 cell-based functional assay as described above and the data are shown in Table 2. The compound numbers correspond to the compound numbers used in Table 1.
In general terms: Calcium flux is commonly read through the fluorescence of an indicator in the cells.

Broadly, the Emax is the greatest response seen or fitted, relative to the assay's reference. The term pEC50 denotes −log10 of the EC50, conventionally taken in molar units. As to `Cc1c2c(N)c(C(=O)N3CCC(c4ccccc4)C3)sc2nn2cnnc12` (stereo not drawn) [Compound 1, (8-amino-9-methylthieno[3,2-e][1,2,4]triazolo[4,3-b]pyridazin-7-yl)(3-phenylpyrrolidin-1-yl)methanone], the Emax at 30 µM worked out at 38.8% and the pEC50 is 5.48.

Regarding `Cc1c2c(N)c(C(=O)N3CCCC3)sc2nn2cnnc12` [Compound 2, (8-amino-9-methylthieno[3,2-e][1,2,4]triazolo[4,3-b]pyridazin-7-yl)(pyrrolidin-1-yl)methanone], the Emax at 30 µM came out at 72.2% and the pEC50 is 5.01.

Take `Cc1c2c(N)c(C(=O)NC3Cc4ccccc4C3)sc2nn2cnnc12` [Compound 3, 8-amino-N-(2,3-dihydro-1H-inden-2-yl)-9-methylthieno[3,2-e][1,2,4]triazolo[4,3-b]pyridazine-7-carboxamide]: the Emax at 30 µM amounted to 82.3% and the pEC50 is 7.05.

As to `COc1ccc(CNC(=O)c2sc3nn4cnnc4c(C)c3c2N)cc1` [Compound 4, 8-amino-N-(4-methoxybenzyl)-9-methylthieno[3,2-e][1,2,4]triazolo[4,3-b]pyridazine-7-carboxamide], the Emax at 30 µM worked out at 80.6% and the pEC50 is 6.17.

With `Cc1c2c(N)c(C(=O)NC3CC3)sc2nn2cnnc12` [Compound 5, 8-amino-N-cyclopropyl-9-methylthieno[3,2-e][1,2,4]triazolo[4,3-b]pyridazine-7-carboxamide], the Emax at 30 µM is 74.2% and the pEC50 was 6.54.

In the case of `Cc1c2c(N)c(C(=O)NC3CCC3)sc2nn2cnnc12` [Compound 6, 8-amino-N-cyclobutyl-9-methylthieno[3,2-e][1,2,4]triazolo[4,3-b]pyridazine-7-carboxamide], the Emax at 30 µM was 71.8% and the pEC50 is 6.05.

For `Cc1c2c(N)c(C(=O)NC3CCN(c4ccccc4)CC3)sc2nn2cnnc12` [Compound 7, 8-amino-9-methyl-N-(1-phenylpiperidin-4-yl)thieno[3,2-e][1,2,4]triazolo[4,3-b]pyridazine-7-carboxamide], the Emax at 30 µM was 42.5% and the pEC50 was 5.15.

Take `Cc1c2c(N)c(C(=O)NCc3cccc(F)c3)sc2nn2cnnc12` [Compound 8, 8-amino-N-(3-fluorobenzyl)-9-methylthieno[3,2-e][1,2,4]triazolo[4,3-b]pyridazine-7-carboxamide]: the Emax at 30 µM was 78% and the pEC50 is 6.43.

With `Cc1c2c(N)c(C(=O)NCc3ccc(F)cc3)sc2nn2cnnc12` [Compound 9, 8-amino-N-(4-fluorobenzyl)-9-methylthieno[3,2-e][1,2,4]triazolo[4,3-b]pyridazine-7-carboxamide], the maximum response (Emax) at 30 µM was 76.3% and the pEC50 is 5.95.
